Assay results: PubChem BioAssay (NCI)
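Interpolation was linear, between the two tested concentrations surrounding the appropriate level; five concentrations were tested over 48 hours in 96-well plates. Abbreviation: GI50, concentration required for 50% inhibition of growth. TGI denotes the concentration required for complete inhibition of growth.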

Tested on: ACHN renal
Assay: NCI-60 cell line screen, 48 h

Row | SMILES | TGI | GI50
1 | C=C1C(=O)OC2/C=C(\COC(C)=O)CCC(OC(C)=O)C3=CC(OC3=O)C12 (stereo not given) | 9.13 µM | –
2 | CCCSc1nc(COC(=O)NC)c(COC(=O)NC)n1C | 72.3 µM | –
3 | O=C1CCC(O)=C1N=Nc1ccccc1 | > 100 µM | –
4 | C[C@]12CC[C@@H]3c4cc(OCC(F)(F)F)c(O)cc4/C(=N/O)C[C@H]3[C@@H]1CC[C@@H]2O | > 64 µM | 0.065 µM
5 | NC(=O)NCc1c(C(N)=O)ncn1Cc1ccccc1 | > 100 µM | –
6 | COc1cc(/C=C/c2ccc(OC)c(OC)c2)cc(OC)c1 | 89.8 µM | –
7 | O=C1CSC(/C(=N/Nc2ccccc2)c2nc3ccccc3[nH]2)=N1 | > 100 µM | –
8 | O=C(c1ccccc1)C1OC12C(=O)Nc1ccccc12 (stereo not given) | > 100 µM | –
9 | COc1ccc2nc(NC(=O)C(=O)C(C#N)c3ccc([N+](=O)[O-])cc3)sc2c1 (stereo not given) | > 100 µM | –
10 | COc1ccc(/C=C/c2cc(OC)cc(=O)o2)cc1 | > 100 µM | –
11 | O=C1CSC(c2ccc(Cl)cc2Cl)N1c1ccc(F)cc1 (stereo not given) | 31.1 µM | 17.2 µM
12 | O=C(O)[C@H](NS(=O)(=O)c1ccc([N+](=O)[O-])cc1)c1ccccc1 | > 100 µM | –
13 | S=C1OC2CCCC[C@H]2O1 (stereo not given in full) | > 100 µM | –
14 | O=C1/C(=C/c2cccc([N+](=O)[O-])c2)COc2ccc(Br)cc21 | > 100 µM | –
15 | CCOC(=O)NC(=O)c1cn(CCCOC(=O)CCCCCCCCCCC(=O)OCCCn2cc(C(=O)NC(=O)OCC)c(=O)[nH]c2=O)c(=O)[nH]c1=O | > 100 µM | –
16 | COc1cc2[nH]c(C(=O)c3cc(OC)c(OC)c(OC)c3)c(N)c2cc1C#CC1CC1 | > 100 µM | 1.3 µM

Row | SMILES | TGI | GI50
17 | COc1cc(/C=C(\C#N)c2ccccc2)cc(OC)c1 | > 100 µM | –
18 | N#Cc1cccnc1Cl | > 100 µM | –
19 | CC(=O)N[C@H]1CSSC[C@@H](C(N)=O)NC(=O)[C@H](C(C)C)NC(=O)[C@H](C)NC(=O)[C@H](Cc2cnc[nH]2)NC1=O | > 100 µM | > 100 µM
20 | O=C1CC2c3ccccc3CCC2c2ccccc21 (stereo not given) | > 100 µM | –
21 | CCCCCCCCCCCC(=O)OCC1OC(OC)C(NC(=O)N(CCCl)N=O)C(O)C1O (stereo not given) | 35.6 µM | –
22 | C=CC/C=C/C/C=C/CCCCCCCc1cccc(O)c1C(=O)O | > 100 µM | –
23 | COc1ccc(OC)c2c(C(=O)O)c(Cc3ccccc3)ccc12 | > 100 µM | –
24 | O=C(Nc1c(Cl)cc([N+](=O)[O-])cc1Cl)C(=O)C(C1OC(=O)c2ccccc21)[N+](=O)[O-] (stereo not given) | > 100 µM | –
25 | Cc1c(C(=O)/C=C/c2ccccc2)[n+](=O)c2ccccc2n1[O-] | 33.6 µM | –
26 | CN(CCC#N)c1ccc(/C=C(\C#N)c2ccc(Br)cc2)cc1 | > 100 µM | > 100 µM
27 | N#CC1CC2(C1)OCCS2 (stereo not given) | > 100 µM | –
28 | COc1cc(NC(C)CCCN)c2nccc(C)c2c1 (stereo not given) | 74.6 µM | –
29 | C1C[OH+]CC[OH+]CC[OH+]CC[OH+]CC[OH+]1.[Cl-].[V] | > 100 µM | 75 µM
30 | CC(=O)C(=CN1CCN(C(=O)c2ccco2)C1=S)C(C)=O | 8.04 µM | 2.87 µM
31 | c1ccc(C2Nc3ccccc3C3OCCCC23)cc1 (stereo not given) | > 100 µM | –

Tested on: OVCAR-5 ovarian
Assay: NCI-60 cell line screen, 48 h

Row | SMILES | TGI | GI50
32 | O=C1[C@@H]2C(c3ccccc3F)=NO[C@@H]2C(=O)N1c1ccc(Cc2ccc(N3C(=O)[C@H]4C(c5ccccc5F)=NO[C@H]4C3=O)cc2)cc1 | > 100 µM | –
33 | C=CCc1ccc(Oc2cc(CC=C)c3c(c2O)O[C@@H](CO)[C@H]3c2ccc(O)c(-c3cc(CC=C)ccc3O)c2)cc1 | > 100 µM | –
34 | CC(CO)(CO)NCCCCn1ccc2c1C(=O)c1c(c(O)c3ccccc3c1O)C2=O | 29.5 µM | 16 µM
35 | O=C(NCO)NCOCn1c(=O)n(CO)c(=O)n(CO)c1=O | > 100 µM | –
36 | Clc1ccc2c(c1)-c1c3c(nn1-c1ccccc1)-c1ccccc1SC3O2 (stereo not given) | > 100 µM | –
37 | COc1ccc(CCN2COc3c([C@@H](C)CCC=C(C)C)ccc(C)c3C2)cc1OC | 20.8 µM | 8.53 µM
38 | O=C1OC2CCCC[C@@H]2C2C[C@]34CCCCC3[C@@H](C(=O)O4)C12 (stereo not given in full) | > 100 µM | –
39 | CN(C)c1cc[c]([Sn]([c]2ccc(N(C)C)cc2)([c]2ccc(N(C)C)cc2)[c]2ccc(N(C)C)cc2)cc1 | 33.2 µM | 16.2 µM
40 | COc1cc(/C=C/c2cc(/C=C/c3ccc(O)c(OC)c3)n(C(=O)Nc3ccc(C)cc3C)n2)ccc1O | 6.85 µM | 1.51 µM
41 | C=C1C(=O)OC2/C=C(\COC(C)=O)CCC(OC(C)=O)C3=CC(OC3=O)C12 (stereo not given) | 33.3 µM | –
42 | CCCSc1nc(COC(=O)NC)c(COC(=O)NC)n1C | > 100 µM | –
43 | O=C1CCC(O)=C1N=Nc1ccccc1 | > 100 µM | –
44 | CCN(CC)c1ccc(N=Nc2ccc(-c3nc4ccc[n+](C)c4s3)cc2)cc1 | 31.1 µM | –
45 | C[C@]12CC[C@@H]3c4cc(OCC(F)(F)F)c(O)cc4/C(=N/O)C[C@H]3[C@@H]1CC[C@@H]2O | > 58.2 µM | –
46 | COc1cc(/C=C/c2ccc(OC)c(OC)c2)cc(OC)c1 | > 100 µM | –
47 | O=C1CSC(/C(=N/Nc2ccccc2)c2nc3ccccc3[nH]2)=N1 | > 100 µM | –
48 | O=C(c1ccccc1)C1OC12C(=O)Nc1ccccc12 (stereo not given) | > 100 µM | –
49 | COc1ccc2nc(NC(=O)C(=O)C(C#N)c3ccc([N+](=O)[O-])cc3)sc2c1 (stereo not given) | > 100 µM | –
50 | COc1ccc(/C=C/c2cc(OC)cc(=O)o2)cc1 | > 100 µM | –
51 | O=C1CSC(c2ccc(Cl)cc2Cl)N1c1ccc(F)cc1 (stereo not given) | 29.5 µM | 16 µM

Row | SMILES | TGI | GI50
52 | O=C(O)[C@H](NS(=O)(=O)c1ccc([N+](=O)[O-])cc1)c1ccccc1 | > 100 µM | –
53 | S=C1OC2CCCC[C@H]2O1 (stereo not given in full) | > 100 µM | –
54 | O=C1/C(=C/c2cccc([N+](=O)[O-])c2)COc2ccc(Br)cc21 | > 100 µM | –
55 | CSC(C1c2ccccc2N(c2ccc(C)cc2)c2[nH]c(=O)n(C)c(=O)c21)S(=O)(=O)c1ccc(C)cc1 (stereo not given) | > 100 µM | –
56 | CCOC(=O)NC(=O)c1cn(CCCOC(=O)CCCCCCCCCCC(=O)OCCCn2cc(C(=O)NC(=O)OCC)c(=O)[nH]c2=O)c(=O)[nH]c1=O | > 100 µM | –
57 | COc1cc2[nH]c(C(=O)c3cc(OC)c(OC)c(OC)c3)c(N)c2cc1C#CC1CC1 | > 100 µM | 11.9 µM
58 | COc1cc(/C=C(\C#N)c2ccccc2)cc(OC)c1 | > 100 µM | –
59 | N#Cc1cccnc1Cl | > 100 µM | –
60 | CC(=O)N[C@H]1CSSC[C@@H](C(N)=O)NC(=O)[C@H](C(C)C)NC(=O)[C@H](C)NC(=O)[C@H](Cc2cnc[nH]2)NC1=O | > 100 µM | > 100 µM
61 | O=C1CC2c3ccccc3CCC2c2ccccc21 (stereo not given) | > 100 µM | –
62 | CCCCCCCCCCCC(=O)OCC1OC(OC)C(NC(=O)N(CCCl)N=O)C(O)C1O (stereo not given) | 57.7 µM | –
63 | C=CC/C=C/C/C=C/CCCCCCCc1cccc(O)c1C(=O)O | > 100 µM | –
64 | COc1ccc(OC)c2c(C(=O)O)c(Cc3ccccc3)ccc12 | > 100 µM | –
65 | O=C(Nc1c(Cl)cc([N+](=O)[O-])cc1Cl)C(=O)C(C1OC(=O)c2ccccc21)[N+](=O)[O-] (stereo not given) | > 100 µM | –
66 | Cc1c(C(=O)/C=C/c2ccccc2)[n+](=O)c2ccccc2n1[O-] | 30.7 µM | –
67 | CN(CCC#N)c1ccc(/C=C(\C#N)c2ccc(Br)cc2)cc1 | > 100 µM | > 100 µM
68 | N#CC1CC2(C1)OCCS2 (stereo not given) | > 100 µM | –
69 | COc1cc(NC(C)CCCN)c2nccc(C)c2c1 (stereo not given) | > 100 µM | –
70 | c1ccc(C2Nc3ccccc3C3OCCCC23)cc1 (stereo not given) | > 100 µM | –

Tested on: BT-549 breast
Assay: NCI-60 cell line screen, 48 h

Row | SMILES | GI50 | TGI
71 | CC(CO)(CO)NCCCCn1ccc2c1C(=O)c1c(c(O)c3ccccc3c1O)C2=O | 19.9 µM | 51.2 µM
72 | COc1cc(/C=C/c2cc(/C=C/c3ccc(O)c(OC)c3)n(C(=O)Nc3ccc(C)cc3C)n2)ccc1O | 0.693 µM | 16.8 µM
73 | C=C1C(=O)OC2/C=C(\COC(C)=O)CCC(OC(C)=O)C3=CC(OC3=O)C12 (stereo not given) | – | 22.6 µM
74 | COc1cc(/C=C/c2ccc(OC)c(OC)c2)cc(OC)c1 | – | 72.3 µM
75 | O=C1CSC(c2ccc(Cl)cc2Cl)N1c1ccc(F)cc1 (stereo not given) | 18 µM | 32.3 µM
76 | CC(=O)N[C@H]1CSSC[C@@H](C(N)=O)NC(=O)[C@H](C(C)C)NC(=O)[C@H](C)NC(=O)[C@H](Cc2cnc[nH]2)NC1=O | > 100 µM | > 100 µM
77 | CN(CCC#N)c1ccc(/C=C(\C#N)c2ccc(Br)cc2)cc1 | > 100 µM | > 100 µM
78 | COc1cc(NC(C)CCCN)c2nccc(C)c2c1 (stereo not given) | – | 56.7 µM
79 | CC(=O)C(=CN1CCN(C(=O)c2ccco2)C1=S)C(C)=O | 14 µM | 30.1 µM
